The record followed here is ChEMBL document CHEMBL1156290, “Identification of amide bioisosteres of triazole oxytocin antagonists” (Bioorg Med Chem Lett, 2010).

What all share (format): functional
One assay has as its target T1, Oxytocin receptor (Homo sapiens, UniProt P30559).
T1 sequence (P30559 whole entry): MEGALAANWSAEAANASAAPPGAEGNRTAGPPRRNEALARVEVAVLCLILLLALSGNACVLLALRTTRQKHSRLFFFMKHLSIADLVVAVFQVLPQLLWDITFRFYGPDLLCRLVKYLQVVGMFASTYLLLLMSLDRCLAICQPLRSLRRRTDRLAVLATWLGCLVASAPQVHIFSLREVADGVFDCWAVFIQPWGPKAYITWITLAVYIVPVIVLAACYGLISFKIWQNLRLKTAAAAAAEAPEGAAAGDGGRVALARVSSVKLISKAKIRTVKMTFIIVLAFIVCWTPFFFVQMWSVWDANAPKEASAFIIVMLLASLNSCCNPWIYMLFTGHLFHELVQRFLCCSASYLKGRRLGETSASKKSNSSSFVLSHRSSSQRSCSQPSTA
Briefly: Antagonist activity at human cloned OT receptor by cell based beta-lactamase reporter gene assay.

The target of a further assay is Vasopressin V1a receptor (Homo sapiens, UniProt P37288). Description: Antagonist activity at human cloned vasopressin V1A receptor by cell based beta-lactamase reporter gene assay. Background: A reporter such as luciferase makes a cellular process visible.
The target of the next assay is Vasopressin V2 receptor (Homo sapiens, UniProt P30518). Briefly: Antagonist activity at human cloned vasopressin V2 receptor by cell based beta-lactamase reporter gene assay.
In assay [1] the target is T2, Vasopressin V1b receptor (Homo sapiens) (UniProt P47901).
T2 sequence (whole entry): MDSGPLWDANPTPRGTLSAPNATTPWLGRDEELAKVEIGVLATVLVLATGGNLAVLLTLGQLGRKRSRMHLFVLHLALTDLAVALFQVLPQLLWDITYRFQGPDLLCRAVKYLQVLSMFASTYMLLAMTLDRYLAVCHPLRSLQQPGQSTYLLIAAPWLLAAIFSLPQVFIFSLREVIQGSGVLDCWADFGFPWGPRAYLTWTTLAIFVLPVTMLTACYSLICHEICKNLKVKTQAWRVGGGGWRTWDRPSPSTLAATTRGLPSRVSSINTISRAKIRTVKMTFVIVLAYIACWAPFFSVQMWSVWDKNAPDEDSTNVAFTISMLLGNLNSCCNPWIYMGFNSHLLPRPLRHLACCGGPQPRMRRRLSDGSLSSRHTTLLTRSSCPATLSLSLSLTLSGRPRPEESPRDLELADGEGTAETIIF
Briefly: Antagonist activity at human cloned vasopressin V1B receptor at 10 uM by cell based beta-lactamase reporter gene assay. Also on record: scale not given: the % may be the effect or the level left.

pKi: −log10 of the molar value.

Chain of Vasopressin V2 receptor (P30518 whole entry): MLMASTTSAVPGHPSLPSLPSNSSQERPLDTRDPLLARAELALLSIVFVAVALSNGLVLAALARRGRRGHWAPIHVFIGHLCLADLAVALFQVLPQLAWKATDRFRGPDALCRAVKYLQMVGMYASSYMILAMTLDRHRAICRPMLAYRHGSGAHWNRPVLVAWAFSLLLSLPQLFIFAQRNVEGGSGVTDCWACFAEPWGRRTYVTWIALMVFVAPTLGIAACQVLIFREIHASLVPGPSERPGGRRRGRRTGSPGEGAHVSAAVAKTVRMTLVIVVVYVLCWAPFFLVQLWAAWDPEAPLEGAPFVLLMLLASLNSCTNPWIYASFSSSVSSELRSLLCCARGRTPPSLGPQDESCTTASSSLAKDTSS
Chain of Vasopressin V1a receptor (P37288 whole entry): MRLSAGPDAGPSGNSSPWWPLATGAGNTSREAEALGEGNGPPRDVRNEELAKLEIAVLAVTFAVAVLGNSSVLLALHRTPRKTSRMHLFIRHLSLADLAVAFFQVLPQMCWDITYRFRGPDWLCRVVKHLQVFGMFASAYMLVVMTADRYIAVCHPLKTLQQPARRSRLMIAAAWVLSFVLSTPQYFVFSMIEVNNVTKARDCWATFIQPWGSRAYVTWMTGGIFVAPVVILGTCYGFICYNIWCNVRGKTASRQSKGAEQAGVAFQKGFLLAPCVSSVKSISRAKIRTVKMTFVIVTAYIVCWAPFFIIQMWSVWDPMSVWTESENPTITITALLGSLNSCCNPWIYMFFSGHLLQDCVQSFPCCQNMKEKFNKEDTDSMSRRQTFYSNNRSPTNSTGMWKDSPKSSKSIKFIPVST

One may read the pKi as the Ki on a negative log10 scale, so that one unit is a factor of ten. Regarding `COc1ccc(N(C)C(=O)c2cnc(-c3ccc(C#N)cc3C)cn2)cn1`, the negative logarithm of the Ki (pKi) on Oxytocin receptor is 6.21; on Vasopressin V1a receptor, < 5.00; at Vasopressin V2 receptor, < 5.00.

As for `COc1ccc2oc(C(=O)N(C)c3ccc(OC)nc3)cc2c1`, the pKi on Oxytocin receptor is 6.63.

As for `CCN(C(=O)c1cnc(-c2ccc(C#N)cc2C)cn1)c1ccc(OC)nc1`, the results for the pKi on Oxytocin receptor, at Vasopressin V1a receptor and on Vasopressin V2 receptor were 6.41, 5.14 and < 5.00, respectively.

In turn, `CCN(C(=O)COc1ccc2ccccc2c1)c1ccc(OC)nc1` had a negative-log Ki (pKi) on Oxytocin receptor of 7.32.

On to `COCCN(C(=O)c1cnc(-c2ccc(C#N)cc2C)cn1)c1ccc(OC)nc1`, for which the values for the negative logarithm of the Ki (pKi) on Oxytocin receptor, at Vasopressin V1a receptor and on Vasopressin V2 receptor were 6.36, 4.92 and < 5.00, respectively.

At Oxytocin receptor, `CCN(C(=O)c1cc(-c2ccc(C)cc2)n[nH]1)c1ccc(OC)nc1` gave a pKi of 7.39.

In turn, `CCN(C(=O)c1cnn(-c2ccc(OC)cc2)c1C)c1ccc(OC)nc1` gave a pKi at Oxytocin receptor of 7.04.

With `COc1ccc(N(C)C(=O)c2cnc(-c3ccccc3C)cn2)cn1`, the figures for the pKi on Oxytocin receptor, on Vasopressin V1a receptor and on Vasopressin V2 receptor were 7.04, 5.96 and < 5.00, respectively.

The compound `CCN(C(=O)COc1ccc(C(C)C)cc1)c1ccc(OC)nc1` showed a negative-log Ki (pKi) at Oxytocin receptor of 6.60.

In the case of `COc1ccc(N(C(=O)c2cnc(-c3ccccc3C)cn2)C(C)C)cn1`, the negative-log Ki (pKi) at Oxytocin receptor is 6.82; at Vasopressin V1a receptor it was < 5.00; at Vasopressin V2 receptor, < 5.00.

For `CCN(C(=O)c1cnc(-c2cccc(C)c2C)cn1)c1ccc(OC)nc1`, the results for the negative-log Ki (pKi) at Oxytocin receptor, on Vasopressin V1a receptor and at Vasopressin V2 receptor were 7.60, 6.33 and 5.55, respectively. Also, in assay [1], the Activity is < 20%.

With `COCCN(C(=O)c1cnc(-c2cccc(C)c2C)cn1)c1ccc(OC)nc1`, the pKi was 7.96 at Oxytocin receptor, 6.27 at Vasopressin V1a receptor and 5.62 at Vasopressin V2 receptor. The Activity in assay [1] is < 20%.

Take `COc1ccc(N(C(=O)c2cnc(-c3cccc(C)c3C)cn2)C(C)C)cn1`: the pKi on Oxytocin receptor is 7.85; at Vasopressin V1a receptor, < 5.00; on Vasopressin V2 receptor it was 5.64.

Consider `CCN(C(=O)c1cnc(-c2ccccc2C)cn1)c1ccc(OC)nc1`, for which the pKi on Oxytocin receptor is 6.89; on Vasopressin V1a receptor it was 5.64; on Vasopressin V2 receptor, < 5.00.

`CCN(C(=O)c1cc2cc(OC)ccc2o1)c1ccc(OC)nc1` showed a negative logarithm of the Ki (pKi) at Oxytocin receptor of 7.07.

As for `CCN(C(=O)c1cnc(-c2cccc(F)c2C)cn1)c1ccc(OC)nc1`, the negative-log Ki (pKi) at Oxytocin receptor was 7.54; on Vasopressin V1a receptor it was 5.23; at Vasopressin V2 receptor it was 6.46.

For `COCCN(C(=O)c1cnc(-c2ccccc2C)cn1)c1ccc(OC)nc1`, the pKi on Oxytocin receptor is 6.94; at Vasopressin V1a receptor, 5.48; on Vasopressin V2 receptor it was < 5.00.

For `CCN(C(=O)c1ccc(-c2ccc(OC)cc2)[nH]c1=O)c1ccc(OC)nc1`, the pKi at Oxytocin receptor was 7.08.

Take `COc1ccc(N(C)C(=O)c2cnc(-c3ccc(F)cc3C)cn2)cn1`: the negative logarithm of the Ki (pKi) was 6.66 at Oxytocin receptor and 5.70 on Vasopressin V1a receptor.

For `COCCN(C(=O)c1cnn(-c2ccccc2)c1C)c1ccc(OC)nc1`, the pKi at Oxytocin receptor was 7.01.

On to `CCN(C(=O)c1ccc(-c2ccccc2)[nH]c1=O)c1ccc(OC)nc1`, for which the negative logarithm of the Ki (pKi) at Oxytocin receptor was 7.01.

At Oxytocin receptor, `COc1ccc(N(C)C(=O)c2ccc(-c3ccccc3)cc2)cn1` gave a negative-log Ki (pKi) of 7.05.

On Oxytocin receptor, `CCN(C(=O)c1cnn(-c2ccccc2)c1C)c1ccc(OC)nc1` gave a pKi of 7.07.
